For the test, the target named is T1, PD-1/PD-L1 interaction (Homo sapiens, UniProt Q9NZQ7).
T1 construct: purchased CisBio 63ADK000CPAPEG
As to the kind of experiment: PD-1/PD-L1 HTRF binding assay (CisBio kit). To be noted: HTRF PD1/PD-L1 inhibition assay. How it is done: PD-L1 Enzyme Assay: Homogenous Time-Resolved Fluorescence (HTRF) Binding Assay
All binding studies were performed using PD-1/PD-L1 Binding Assay Kit from CisBio (Catalog #63ADK000CPAPEG), according to the manufacturer's protocol. The interaction between Tag1-PD-1 and […] was detected by anti-Tag1-Eu^3+ (HTRF donor) and anti-Tag2-XL665 (HTRF acceptor). When the donor and acceptor antibodies were brought to close proximity due to PD-1 and PD-L1 binding, excitation of the donor antibody triggered fluorescent resonance energy transfer (FRET) towards the acceptor antibody, which in turn emitted specifically at 665 nm. This specific signal is positively proportional to PD-1/PD-L1 interaction. The compounds blocking PD-1/PD-L1 interaction will cause a reduction in HTRF signal. The necessary reagents were mixed in the following order: 2 μL compounds (or diluents buffer), 4 μL PD-L1 protein, 4 μL PD-1 protein. After an incubation of 15 minutes, 5 μL of anti-Tag1-Eu^3+ and 5 μL of anti-Tag2-XL665 were added. The plate was sealed and incubated at room temperature for 1 h. The fluorescence emission was read at two different wavelengths (665 nm and 620 nm) on a BMG PheraStar® multi-plate reader.
Results were calculated from the 665 nm and 620 nm fluorescence signal and expressed in HTRF ratio=(665 nm/620 nm)×10^4.
Compounds having IC50<100 nM are designated as “A”; 100-500 nM are designated as “B”; and >500 nM are designated as “C” respectively.
On the technique in general: Time-resolved FRET reads energy transfer from a long-lived donor to a nearby acceptor.

T1 sequence (Q9NZQ7 19-238 limits assumed): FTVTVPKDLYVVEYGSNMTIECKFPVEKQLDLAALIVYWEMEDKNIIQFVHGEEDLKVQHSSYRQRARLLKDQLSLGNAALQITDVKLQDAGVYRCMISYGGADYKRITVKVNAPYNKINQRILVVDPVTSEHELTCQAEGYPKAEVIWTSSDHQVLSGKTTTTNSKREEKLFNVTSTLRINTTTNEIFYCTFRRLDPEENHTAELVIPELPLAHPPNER

Broadly, the IC50 is the concentration that gives 50% inhibition. Low readings indicate inhibition by little substance, high ones a need for much substance. On to `Cc1c(COc2cc(OCc3cncc(C#N)c3)c(CN3CCC[C@@H](CO)C3)c3c2CCC3)cccc1-c1ccccc1` [Example 21, (R)-5-(((4-((3-(hydroxymethyl)piperidin-1-yl)methyl)-7-((2-methyl-[1,1′-biphenyl]-3-yl)methoxy)-2,3-dihydro-1H-inden-5-yl)oxy)methyl)nicotinonitrile 2,2,2-trifluoroacetate], for which the IC50 is below 0.1 µM.

The compound `Cc1c(COc2cc(OCc3cncc(C#N)c3)c(CN3CCC3CO)c3c2CCC3)cccc1-c1cccnc1` (stereo not shown) [Example 71, 5-(((4-((2-(hydroxymethyl)azetidin-1-yl)methyl)-7-((2-methyl-3-(pyridin-3-yl)benzyl)oxy)-2,3-dihydro-1H-inden-5-yl)oxy)methyl)nicotinonitrile] registered an IC50 of 0.1 to 0.5 µM. As for `Cc1c(COc2cc(OCc3cncc(C#N)c3)c(C(=O)N3CC[C@H](CO)C3)c3c2CCC3)cccc1-c1ccccc1` [Example 51, (S)-5-(((4-(3-(hydroxymethyl)pyrrolidine-1-carbonyl)-7-((2-methyl-[1,1′-biphenyl]-3-yl)methoxy)-2,3-dihydro-1H-inden-5-yl)oxy)methyl)nicotinonitrile], the figure is 0.1 to 0.5 µM. As for `COc1cccc(-c2cccc(COc3cc(OCc4cncc(C#N)c4)c(CN4CCC4CO)c4c3CCC4)c2C)c1` (stereo not shown) [Example 65, 5-(((4-((2-(hydroxymethyl)azetidin-1-yl)methyl)-7-((3′-methoxy-2-methyl-[1,1′-biphenyl]-3-yl)methoxy)-2,3-dihydro-1H-inden-5-yl)oxy)methyl)nicotinonitrile], the figure is below 0.1 µM; as for `Cc1c(COc2cc(OCc3cncc(C#N)c3)c(CN3CC[C@@H](CO)C3)c3c2CCC3)cccc1-c1ccccc1` [Example 15, (R)-5-(((4-((3-(hydroxymethyl)pyrrolidin-1-yl)methyl)-7-((2-methyl-[1,1′-biphenyl]-3-yl)methoxy)-2,3-dihydro-1H-inden-5-yl)oxy)methyl)nicotinonitrile], below 0.1 µM; as for `Cc1c(COc2cc(OCc3cncc(C#N)c3)c(CN3CCC[C@@H]3CO)c3c2CCC3)cccc1-c1ccccc1` [Example 19, (R)-5-(((4-((2-(hydroxymethyl)pyrrolidin-1-yl)methyl)-7-((2-methyl-[1,1′-biphenyl]-3-yl)methoxy)-2,3-dihydro-1H-inden-5-yl)oxy)methyl)nicotinonitrile], below 0.1 µM. As for `Cc1c(COc2cc(OCc3cncc(C#N)c3)c(CN3CCC3CO)c3c2CCC3)cccc1-c1ccncc1` (stereo not shown) [Example 70, 5-(((4-((2-(hydroxymethyl)azetidin-1-yl)methyl)-7-((2-methyl-3-(pyridin-4-yl)benzyl)oxy)-2,3-dihydro-1H-inden-5-yl)oxy)methyl)nicotinonitrile], the figure is above 0.5 µM; as for `Cc1c(COc2cc(OCc3cncc(C#N)c3)c(CN3CCC3CO)c3c2CCC3)cccc1-c1cn[nH]c1` (stereo not shown) [Example 57, 5-(((4-((2-(hydroxymethyl)azetidin-1-yl)methyl)-7-((2-methyl-3-(1H-pyrazol-4-yl)benzyl)oxy)-2,3-dihydro-1H-inden-5-yl)oxy)methyl)nicotinonitrile], above 0.5 µM; as for `COc1ccc(-c2cccc(COc3cc(OCc4cncc(C#N)c4)c(CN4CCC4CO)c4c3CCC4)c2C)cc1` (stereo not shown) [Example 63, 5-(((4-((2-(hydroxymethyl)azetidin-1-yl)methyl)-7-((4′-methoxy-2-methyl-[1,1′-biphenyl]-3-yl)methoxy)-2,3-dihydro-1H-inden-5-yl)oxy)methyl)nicotinonitrile], above 0.5 µM. Compound `Cc1c(COc2cc(OCc3cncc(C#N)c3)c(CN3CC4(CC4)C[C@H]3CO)c3c2CCC3)cccc1-c1ccc(F)cc1` [Example 47, (S)-5-(((7-((4′-fluoro-2-methyl-[1,1′-biphenyl]-3-yl)methoxy)-4-((6-(hydroxymethyl)-5-azaspiro[2.4]heptan-5-yl)methyl)-2,3-dihydro-1H-inden-5-yl)oxy)methyl)nicotinonitrile] showed a half-inhibitory concentration (IC50) of 0.1 to 0.5 µM. `Cc1c(COc2cc(OCc3cncc(C#N)c3)c(CN3CCC3CO)c3c2CCC3)cccc1-c1ccc(OC(F)(F)F)cc1` (stereo not shown) [Example 66, 5-(((4-((2-(hydroxymethyl)azetidin-1-yl)methyl)-7-((2-methyl-4′-(trifluoromethoxy)-[1,1′-biphenyl]-3-yl)methoxy)-2,3-dihydro-1H-inden-5-yl)oxy)methyl)nicotinonitrile] yielded an IC50 above 0.5 µM.

Turning to `Cc1c(COc2cc(OCc3cncc(C#N)c3)c(CN3CCC3CO)c3c2CCC3)cccc1-c1cncnc1` (stereo not shown) [Example 59, 5-(((4-((2-(hydroxymethyl)azetidin-1-yl)methyl)-7-((2-methyl-3-(pyrimidin-5-yl)benzyl)oxy)-2,3-dihydro-1H-inden-5-yl)oxy)methyl)nicotinonitrile], the IC50 is above 0.5 µM. As for `Cc1c(COc2cc(OCc3cncc(C#N)c3)c(CN3CCC[C@H]3CO)c3c2CCC3)cccc1-c1ccc(F)cc1` [Example 48, (S)-5-(((7-((4′-fluoro-2-methyl-[1,1′-biphenyl]-3-yl)methoxy)-4-((2-(hydroxymethyl)pyrrolidin-1-yl)methyl)-2,3-dihydro-1H-inden-5-yl)oxy)methyl)nicotinonitrile], the figure is 0.1 to 0.5 µM; as for `Cc1c(COc2cc(OCc3cocn3)c(CN3CCC3CO)c3c2CCC3)cccc1-c1ccccc1` (stereo not shown) [Example 43, (1-((7-((2-methyl-[1,1′-biphenyl]-3-yl)methoxy)-5-(oxazol-4-ylmethoxy)-2,3-dihydro-1H-inden-4-yl)methyl)azetidin-2-yl)methanol], 0.1 to 0.5 µM; as for `Cc1c(COc2cc(OCc3cncc(C#N)c3)c(CN3CCC3CO)c3c2CCC3)cccc1-c1ccccc1C(F)(F)F` (stereo not shown) [Example 60, 5-(((4-((2-(hydroxymethyl)azetidin-1-yl)methyl)-7-((2-methyl-2′-(trifluoromethyl)-[1,1′-biphenyl]-3-yl)methoxy)-2,3-dihydro-1H-inden-5-yl)oxy)methyl)nicotinonitrile], 0.1 to 0.5 µM. Turning to `Cc1c(COc2cc(OCc3cncc(C#N)c3)c(CN3CCC3CO)c3c2CCC3)cccc1-c1cccc2cccnc12` (stereo not shown) [Example 69, 5-(((4-((2-(hydroxymethyl)azetidin-1-yl)methyl)-7-((2-methyl-3-(quinolin-8-yl)benzyl)oxy)-2,3-dihydro-1H-inden-5-yl)oxy)methyl)nicotinonitrile], the half-inhibitory concentration (IC50) is above 0.5 µM. For `Cc1c(COc2cc(OCc3cncc(C#N)c3)c(CN3CCC3CO)c3c2CCC3)cccc1-c1ccc(F)cc1` (stereo not shown) [Example 76, 5-(((7-((4′-fluoro-2-methyl-[1,1′-biphenyl]-3-yl)methoxy)-4-((2-(hydroxymethyl)azetidin-1-yl)methyl)-2,3-dihydro-1H-inden-5-yl)oxy)methyl)nicotinonitrile], the IC50 lay in the range of 0.1 to 0.5 µM. `Cc1c(COc2cc(OCc3cncc(C#N)c3)c(CN3CCC3CO)c3c2CCC3)cccc1-c1ccc(C(C)(C)C)cc1` (stereo not shown) [Example 75, 5-(((7-((4′-(tert-butyl)-2-methyl-[1,1′-biphenyl]-3-yl)methoxy)-4-((2-(hydroxymethyl)azetidin-1-yl)methyl)-2,3-dihydro-1H-inden-5-yl)oxy)methyl)nicotinonitrile] registered an IC50 above 0.5 µM. As to `Cc1c(COc2cc(OCc3cncc(C#N)c3)c(CN3CCC(CO)CC3)c3c2CCC3)cccc1-c1ccccc1` [Example 17, 5-(((4-((4-(hydroxymethyl)piperidin-1-yl)methyl)-7-((2-methyl-[1,1′-biphenyl]-3-yl)methoxy)-2,3-dihydro-1H-inden-5-yl)oxy)methyl)nicotinonitrile], the IC50 was below 0.1 µM.

Values taken from patent US20240246931A1, “COMPOUNDS AS PD1/PD-L1 INHIBITORS AND METHODS THEREOF” (JUBILANT PRODEL LLC, priority 2021, published 2024).
